Assay results: PMC7579403, “POTN: A Human Leukocyte Antigen-A2 Immunogenic Peptides Screening Model and Its Applications in Tumor Antigens Prediction” (Frontiers in Immunology, 2020)

How the values were obtained:
[1] = system: CD3+CD8+ T cells from HLA-A2+ healthy donors; assay: ICS assay for immunogenicity: IFN-γ production of CD3+CD8+ T cells from peptide-stimulated PBMCs; assay type: cell-based, human; conditions: for Immunogenicity: response ratio of each peptide in five donors: percentages of IFN-γ+-secreting CD8+ T cells higher than negative control, PBMCs stimulated 10 μg/mL once-weekly 3 weeks
Description: We determined whether the high-binding affinity peptides elicited a T cell response in peripheral blood samples from five HLA-A2^+ healthy donors. The blood samples were obtained from Henan Red Cross Blood Center (Zhengzhou, China) with the approval of the Institutional Ethics Review Board. All research was performed under the approval of the Ethics Committee of Zhengzhou University. An ICS assay was used to quantify IFN-γ production of CD3^+CD8^+ T cells. Peripheral blood mononuclear cells (PBMCs) were stimulated by each peptide (10 μg/mL) once-weekly for 3 weeks according to our previous work ([59]). On day 21, the induced T cells from the PBMCs were used as effector cells, and T2 cells were incubated with the synthesized peptides (50 μg/mL) for 4 h as the stimulator cells. The effector cells (1 × 10^6) and stimulator cells (1 × 10^6) were co-incubated for 3 h, and brefeldin A (2 μg/mL, Sigma-Aldrich, USA) was added to block the release of produced cytokines for another 5 h at 37°C and 5% CO2. The cells were washed and stained with eFlour 710 labeled anti-human CD3 antibody and APC-labeled anti-human CD8 antibody (eBioscience) for 30 min at 4°C before fixation and permeabilization. Permeabilized cells were intracellularly stained with the PE-labeled anti-human IFN-γ antibody (BioLegend, Inc., USA) for 30 min on ice in the dark. Cells were resuspended in buffer for acquisition and analysis using a flow cytometer (FACSCalibur, Becton Dickinson).
Next, we examined the T cell responses of the 13 synthesized peptides with high binding affinity by detecting the percentages of IFN-γ^+ CD8^+ T cells from five HLA-A2^+ healthy donors. A higher percentage of IFN-γ^+ CD8^+ T cells in the total CD8^+ T cell population than that of the negative control indicated an immunogenic peptide. In donor 1, 12 were immunogenic ( Figure 5B ); in donor 2, eight peptides were immunogenic ( Figure 5C ); in donor 3, 10 peptides were immunogenic ( Figure 5D ); in donor 4, six peptides were immunogenic ( Figure 5E ); and in donor 5, 12 peptides were immunogenic ( Figure 5F ). […] In other words, any of the 13 high-affinity peptides could stimulate a T lymphocyte response in at least one donor ( Figures 5G, H ).

[2] = target: T1, HLA-A2 molecule (Homo sapiens, UniProt P04439, D140Y/D185E/D98H/E176V/E277Q/G131W/G231S/I119V/I121R/I166T/I218V/L300P/L318F/N151K/N90K/P208A/P217A/Q86G/Q94H/R138H/R169H/T345S); assay: T2 binding assay (fluorescence index, FI); conditions: T2 cells, peptide 50 μg/mL, human β2-microglobulin 3 µg/mL, 37°C 18 h, anti-HLA-A2 BB7.2 PE-cy7, flow cytometry; class by FI
T1 construct: The T2 cell line (HLA-A2) was supplied by Professor Yuzhang Wu; endogenous in cells; host or cells: T2 cell line (HLA-A2); exogenous human β2-microglobulin from Merck
Description: The T2 binding assay was used to determine the binding affinity of the candidate peptides and HLA-A2 molecule by using a previously described protocol ([27]). The T2 cell line (HLA-A2) was supplied by Professor Yuzhang Wu (Third Military Medical University, Chongqing, China). […] The T2 cells were washed twice and incubated with the anti-human HLA-A2-PE-cy7 antibody (BB7.2, eBioscience, USA) at 4°C for 30 min. The mean fluorescence intensity (FI) of each group was analyzed by flow cytometry (FACSCalibur, Becton-Dickinson, USA). Based on the FI, the binding affinity of the candidate peptides toward HLA-A2 molecule was calculated by FI =a−b/b where a is the mean PE-cy7 FI with the peptide and b is the mean PE-cy7 FI without the peptide.

[3] = system: T cell response; design: method as in PMID 29720506, PMID 15564450, PMID 18753217, PMID 21883919, PMID 11984506; conditions: pairs with only one amino acid different at P3; ref [62]–[66]; cited from earlier work

Binding [2]	Sequence	Immunogenicity: response ratio of each peptide in five donors [1]	Immunogenicity (immunogenic / non-immunogenic) [3]	T cell response in donors ([1]; IFN-γ+ CD8+ T cells, five HLA-A2+ healthy donors)
++ (FI ≥ 1.5)	ALDEKVAEL [CT-X candidate nonamer predicted by POTN, synthesized]	4/5	–	–
++ (FI ≥ 1.5)	ALSTVLPGL [CT-X candidate nonamer predicted by POTN, synthesized]	2/5	–	–
+ (FI ≥ 0.5 to < 1.5)	ALSVMGVYV [CT-X candidate nonamer predicted by POTN, synthesized]	–	–	–
++ (FI ≥ 1.5)	AMASASPSV [CT-X candidate nonamer predicted by POTN, synthesized]	3/5	–	–
–	EVKEKHEFL [literature peptide of a P3 pair]	–	immunogenic	–
–	EVREKHEFL [literature peptide of a P3 pair]	–	non-immunogenic	–
++ (FI ≥ 1.5)	FIDKLVESV [CT-X candidate nonamer predicted by POTN, synthesized]	5/5	–	–
+ (FI ≥ 0.5 to < 1.5)	FLAKLNNTV [CT-X candidate nonamer predicted by POTN, synthesized; also in training set]	–	–	–
+ (FI ≥ 0.5 to < 1.5)	FLAMLKNTV [CT-X candidate nonamer predicted by POTN, synthesized]	–	–	–
- (FI < 0.5)	FLSKLSSII [CT-X candidate nonamer predicted by POTN, synthesized]	–	–	–
++ (FI ≥ 1.5)	ILDRANQSV [CT-X candidate nonamer predicted by POTN, synthesized]	3/5	–	–
++ (FI ≥ 1.5)	KLSSIIPSA [CT-X candidate nonamer predicted by POTN, synthesized]	1/5	–	only elicited a response in donor 5
++ (FI ≥ 1.5)	KMAGELIKI [CT-X candidate nonamer predicted by POTN, synthesized]	4/5	–	–
+ (FI ≥ 0.5 to < 1.5)	KVADLIHFL [CT-X candidate nonamer predicted by POTN, synthesized]	–	–	–
+ (FI ≥ 0.5 to < 1.5)	KVAELVHFL [CT-X candidate nonamer predicted by POTN, synthesized]	–	–	–
+ (FI ≥ 0.5 to < 1.5)	KVAKLVHFL [CT-X candidate nonamer predicted by POTN, synthesized]	–	–	–
++ (FI ≥ 1.5)	LMDVQIPTA [CT-X candidate nonamer predicted by POTN, synthesized]	5/5	–	–
–	QLCDVMFYL [literature peptide of a P3 pair]	–	immunogenic	–
–	QLRDVMFYL [literature peptide of a P3 pair]	–	non-immunogenic	–
++ (FI ≥ 1.5)	SIDDLSFYV [CT-X candidate nonamer predicted by POTN, synthesized]	4/5	–	–
++ (FI ≥ 1.5)	TLDEKVAEL [CT-X candidate nonamer predicted by POTN, synthesized]	5/5	–	–
++ (FI ≥ 1.5)	TLDQVLDEV [CT-X candidate nonamer predicted by POTN, synthesized]	5/5	–	–
+ (FI ≥ 0.5 to < 1.5)	VLSAVTPEL [CT-X candidate nonamer predicted by POTN, synthesized]	–	–	–
+ (FI ≥ 0.5 to < 1.5)	VLSNVLSGL [CT-X candidate nonamer predicted by POTN, synthesized]	–	–	–
++ (FI ≥ 1.5)	VLSTAPPQL [CT-X candidate nonamer predicted by POTN, synthesized]	4/5	–	–
++ (FI ≥ 1.5)	YLATADMPA [CT-X candidate nonamer predicted by POTN, synthesized]	3/5	–	–
